Structures can show the parent of a compound that is named as a salt. Where two headings read alike, the source gives them in different places.
Columns and labels:
salivation in rabbits = test: anticholinergic action: inhibition of pilocarpine-increased salivation in rabbits under light urethane narcosis; format: in vivo; settings: for inhibition at 3 mg/kg: Oryctolagus cuniculus, 3 mg/kg i.v., pilocarpine 5 mg/kg s.c.
Method: The low anticholinergic action can be shown by the lack of salivation inhibition in rabbits: The salivation in rabbits under light urethane narcosis was increased by pilocarpine injection (5 mg/kg. s.c.) and the amount of saliva was measured at 5-minute intervals. The inhibition of salivation is expressed as a percentage based upon the salivation of animals which only received pilocarpine.

rats = test: antidepressive action: suppression of ptosis, seeking behavior, motility and sensitivity to stimulus in rats given 2-hydroxy-2-ethyl-3-isobutyl-9,10-dimethoxy-1,2,3,4,6,7-hexahydro-11bH-benzo[a,d]quinolizine hydrochloride; format: in vivo; settings: 3 x 50 mg/kg p.o.; for Activity in % compared to Amitriptyline: Amitriptyline 100%
Method: The same dosage was administered to a control group of 5 non-pretreated rats. The ratings include central and peripheral symptoms, which are characteristic for tricyclic antidepressants [cf. Ann. N.Y. Acad. Sci. 96, 279 (1962)]. […] These changes were recorded according to a rating scheme which utilized numbers. […] The stated percentages are compared with the values for Amitriptyline* (Amitriptyline 100%).

[1] = acute toxicity in mice (24-hour values); settings: mouse, in vivo, mice, 24-hour values
Text: (§1) The low toxicity of the compounds of the invention can be illustrated by the acute toxicity of 1-methyl-10,11-dihydro-5-(3-dimethylaminopropyl)-5H-dibenzo[a,d]cycloheptene hydrochloride in mice (24-hour values): […]

mice = test: acute toxicity in mice (24-hour values); settings: mouse, in vivo
Text: as §1

## CNCCC=C1c2ccccc2C=Cc2c(C)cccc21.Cl [1-methyl-5-(3-methylaminopropylidene)-5H-dibenzo[a,d]cycloheptene hydrochloride]
Salivation in rabbits
  inhibition at 3 mg/kg: 60%
rats
  Activity in % compared to Amitriptyline: 230%

## CNCCC=C1c2ccccc2CCc2c(C)cccc21.Cl [1-methyl-10,11-dihydro-5-(3-methylaminopropylidene)-5H-dibenzo[a,d]cycloheptene hydrochloride]
Salivation in rabbits
  inhibition at 3 mg/kg: 50%
rats
  Activity in % compared to Amitriptyline: 140%

## Cc1cccc2c1CCc1ccccc1C2CCCN(C)C.Cl (stereo not shown) [1-methyl-10,11-dihydro-5-(3-dimethylaminopropyl)-5H-dibenzo[a,d]cycloheptene hydrochloride]
Salivation in rabbits
  inhibition at 3 mg/kg: 50%
[1]; iv, i.v., read-out: LD50 i.v.
  LD50 at 24 h: 25 to 50 mg/kg
[1]; po, p.o., read-out: LD50 p.o.
  LD50 at 24 h: 300 to 600 mg/kg
rats
  Activity in % compared to Amitriptyline: 180%

## CN(C)CCC=C1c2ccccc2CCc2ccccc21 [Amitriptyline, 5-(3-dimethylaminopropylidene)-dibenzo[a,d][1,4] cycloheptadiene, reference compound]
Salivation in rabbits
  inhibition at 3 mg/kg: 96%
rats
  Activity in % compared to Amitriptyline: 100%

## Cc1cccc2c1C=Cc1ccccc1C2=CCCN(C)C.Cl [1-methyl-5-(3-dimethylaminopropylidene)-5H-dibenzo[a,d]cycloheptene hydrochloride]
Salivation in rabbits
  inhibition at 3 mg/kg: 60%
rats
  Activity in % compared to Amitriptyline: 130%

## Cc1cccc2c1C=Cc1ccccc1C2=CCC[N+](C)(C)[O-] [1-methyl-5-(3-dimethylaminopropylidene)-5H-dibenzo[a,d]cycloheptene N-oxide]
Salivation in rabbits
  salivation inhibition / anticholinergic action (in words): absence of substantial anticholinergic action
mice
  toxicity (in words): reduced toxicity
rats
  antidepressive action (in words): excellent antidepressive action
rats; listed as 1-methyl-5-(3-dimethylaminopropylidene)-5-H-dibenzo[a,d]cyclohehptene N-oxide
  antidepressive action (in words): considerably increased antidepressive action

## Cc1cccc2c1CCc1ccccc1C2=CCCN(C)C.Cl [1-methyl-10,11-dihydro-5-(3-dimethylaminopropylidene)-5H-dibenzo[a,d]cycloheptene hydrochloride]
Salivation in rabbits
  inhibition at 3 mg/kg: 50%
rats
  Activity in % compared to Amitriptyline: 220%

## CNCCCC1c2ccccc2CCc2c(C)cccc21.Cl (stereo not shown) [1-Methyl-10,11-dihydro-5-(3-methylaminopropyl)-5H-dibenzo[a,d]cycloheptene hydrochloride]
Salivation in rabbits
  inhibition at 3 mg/kg: 40%
rats
  Activity in % compared to Amitriptyline: 180%

## Cc1cccc2c1C=Cc1ccccc1C2=CCC[N+](C)(C)[O-] [1-methyl-5-(3-dimethylaminopropylidene)-5H-dibenzo[a,d]cycloheptene N-oxide hydrochloride]
Salivation in rabbits
  inhibition at 3 mg/kg: 14%
rats
  Activity in % compared to Amitriptyline: 140%

Source: US3952017A, “Tricyclic compounds” (Hoffmann-La Roche Inc., priority 1968, dated 1976)
